Assay [1] concerns the target T1, CDC25B (Homo sapiens, UniProt P30305).
T1 construct: Recombinant forms of the catalytic domains of CDC25A, -B and -C were obtained through the vectors pET28a-CDC25A-cd, pET28a-CDC25B-cd and pET28a-CDC25C-cd; made in house
T1 sequence (P30305 431-538 limits assumed): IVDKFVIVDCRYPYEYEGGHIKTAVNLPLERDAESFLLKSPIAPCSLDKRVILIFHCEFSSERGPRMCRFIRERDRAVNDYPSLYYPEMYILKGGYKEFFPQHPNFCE
The assay can be described thus: Residual phosphatase activity of recombinant CDC25B, fluorimetric OMFP assay. In kind it is biochemical. The following applies: for remaining activity at 0.2 µM: 0.2 μM inhibitor; for remaining activity at 0.2 µM / remaining activity at 1 µM: 10 nM CDC25B, 25 μM OMFP, read-out: CDC25B residual activity (%) in the presence of [inhibitor]; for remaining activity at 1 µM: 1 μM inhibitor; for inhibition of the CDC25B phosphatase activity (in words): two inhibitor concentrations, 0.2 and 1 μM. Here is the method: Among the twenty-five structures identified from the multiple ligand-based chemoinformatic approach, eight compounds (2, 10, 12–14, and 16–18) were excluded from the analysis, because endowed with a strong fluorescent signal, which interfered with the emission wavelength of the synthetic substrate 3-O-methylfluorescein phosphate (OMFP) used in the fluorimetric assay. The inhibition of the phosphatase activity of CDC25B by the remaining seventeen analogs was evaluated in the presence of two different concentrations of these compounds (Table 2). […] For this reason, only one of these latter compounds, i.e. 3, was included in the following analysis.
The enzymatic activity of the catalytic domains of CDC25A, -B and -C were determined through a fluorimetric method, which monitored the dephosphorylation of the synthetic substrate OMFP, essentially as previously described. In steady-state enzyme kinetic studies, the residual phosphatase activity of purified recombinant CDC25B was measured at 30°C in the presence of different concentrations of the various inhibitors, using a computer-assisted Cary Eclipse spectrofluorimeter (Varian) equipped with an electronic temperature controller. Excitation and emission wavelengths were set at 485 and 530 nm, respectively; both excitation and emission slits were set at 10 nm. The reaction mixture contained 10 nM CDC25B and different concentrations of the various inhibitors in 500 μL final volume of 20 mM Tris-HCl, pH 7.8, 1 mM DTT. DMSO was used as vehicle control. The reaction started by the addition of 25 μM OMFP, and the formation of the fluorescent product o-methylfluorescein was monitored continuously. The rate of OMFP hydrolysis was expressed as arbitrary units per min (a.u./min). The comparison of the rates determined in the absence and in the presence of the various inhibitors allowed the calculation of the residual phosphatase activity, expressed as a percentage.

Assay [2] has as its system A2058 cells. The experiment in a line: MTT cell growth rate, A2058 melanoma cells. To be noted: A2058, 100 μM, 48 h, MTT. In kind it is cell-based, human. On the procedure: (§1) The human melanoma cell line A2058, kindly provided by CEINGE (Naples, Italy), and SAN cells were derived from lymph nodal metastases and grown in DMEM and RPMI 1640, respectively, supplemented with 10% FBS, 2 mM L-glutamine, 100 IU/mL penicillin G, and 100 μg/mL streptomycin in humidified incubator at 37°C under 5% CO2 atmosphere. All cells were split and seeded every three days and used during the exponential phase of growth. Cell treatments were always carried after 24 h from plating.
(§2) The MTT assay was used to detect cell proliferation essentially as previously described. Briefly, A2058 and SAN cells were plated in 96-well microtiter plates (100 μL/well) at 4000 and 6000 cells/well, respectively. After 24-h seeding, cells were treated with the selected compounds added at 25, 50 or 100 μM concentration, or with 0.5% (v/v) DMSO as a vehicle control. After 24-h, 48-h or 72-h treatment, and upon the addition of 10 μL of MTT solution in the dark, the plate was incubated for 3 h at 37°C under CO2 atmosphere. After medium aspiration and solubilization of formazan crystals, absorbance was measured at 570 nm, using an ELISA plate reader (Bio-Rad, Milano, Italy).

Assay [3] concerns SAN cells. The assay can be described thus: MTT cell growth rate, SAN melanoma cells. In kind it is cell-based, human. The following applies: 100 μM, 48 h, MTT. Here is the method:
as §1, §2

Assay [4] concerns the target T2, CDC25A (Homo sapiens, UniProt P30304).
T2 construct: Recombinant forms of the catalytic domains of CDC25A, -B and -C were obtained through the vectors pET28a-CDC25A-cd, pET28a-CDC25B-cd and pET28a-CDC25C-cd; made in house
T2 sequence (P30304 376-482 limits assumed): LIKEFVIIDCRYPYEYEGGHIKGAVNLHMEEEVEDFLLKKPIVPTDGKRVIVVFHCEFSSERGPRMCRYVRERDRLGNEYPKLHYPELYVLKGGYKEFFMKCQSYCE
The assay can be described thus: Ki from OMFP hydrolysis kinetics (Lineweaver-Burk), CDC25A. In kind it is biochemical. On the procedure: (§3) To measure the inhibition constant (Ki) of the recombinant forms of CDC25A, -B and -C towards the various inhibitors, the affinity of the different forms of CDC25 towards OMFP was measured either in the absence or in the presence of fixed concentrations of the various inhibitors. The reaction mixture contained 20 nM CDC25A, or 10 nM CDC25B, or 40 nM CDC25C, and different concentrations of the various inhibitors in 500 μL final volume of 20 mM Tris-HCl, pH 7.8, 1 mM DTT. DMSO was used as vehicle control. […] The corresponding Lineweaver-Burk plots allowed the calculation of the KM for OMFP and of the Vmax of OMFP hydrolysis, expressed as a.u./minmax. […] The Ki values were obtained from the decrease of a.u./minmax in the presence of the inhibitor, according to the equation a.u./mimmax’ = a.u./mimmax/{1 + ([I]/Ki)}, where a.u./mimmax’ represents the Vmax measured in the presence of the concentration [I] of the inhibitor. The Ki values were obtained from at least three independent experiments and reported as mean ± S.E.

Assay [5] concerns the target T3, CDC25C (Homo sapiens, UniProt P30307).
T3 construct: Recombinant forms of the catalytic domains of CDC25A, -B and -C were obtained through the vectors pET28a-CDC25A-cd, pET28a-CDC25B-cd and pET28a-CDC25C-cd; made in house
T3 sequence (P30307 321-428 limits assumed): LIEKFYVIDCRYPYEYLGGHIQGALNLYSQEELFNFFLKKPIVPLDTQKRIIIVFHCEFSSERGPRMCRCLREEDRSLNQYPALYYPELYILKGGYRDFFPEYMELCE
The experiment in a line: Ki from OMFP hydrolysis kinetics (Lineweaver-Burk), CDC25C. In kind it is biochemical. On the procedure:
as §3

The target in assay [6] is T1, CDC25B. The assay can be described thus: Ki from OMFP hydrolysis kinetics (Lineweaver-Burk), CDC25B. To be noted: 10 nM CDC25B, 1–25 μM OMFP; mean ± S.E. In kind it is biochemical. Here is the method:
To measure the inhibition constant (Ki) of the recombinant forms of CDC25A, -B and -C towards the various inhibitors, the affinity of the different forms of CDC25 towards OMFP was measured either in the absence or in the presence of fixed concentrations of the various inhibitors. The reaction mixture contained 20 nM CDC25A, or 10 nM CDC25B, or 40 nM CDC25C, and different concentrations of the various inhibitors in 500 μL final volume of 20 mM Tris-HCl, pH 7.8, 1 mM DTT. DMSO was used as vehicle control. The reaction started by the addition of 1–25 μM OMFP, and the rate of OMFP hydrolysis was measured as indicated before. The corresponding Lineweaver-Burk plots allowed the calculation of the KM for OMFP and of the Vmax of OMFP hydrolysis, expressed as a.u./minmax. […] The Ki values were obtained from the decrease of a.u./minmax in the presence of the inhibitor, according to the equation a.u./mimmax’ = a.u./mimmax/{1 + ([I]/Ki)}, where a.u./mimmax’ represents the Vmax measured in the presence of the concentration [I] of the inhibitor. The Ki values were obtained from at least three independent experiments and reported as mean ± S.E.

The mark [7] stands for this setting: 20 nM CDC25A, 1–25 μM OMFP, mean ± S.E., read-out: Ki CDC25A.
Where [8] appears, read: 40 nM CDC25C, 1–25 μM OMFP, mean ± S.E., read-out: Ki CDC25C.

Like-named read-outs stand apart in the source and are kept apart here.

Take `Cc1c2ccc(=O)cc-2oc2cc(O)ccc12` [Compound 1]: in assay [1], the remaining activity at 0.2 µM was 76%; the remaining activity at 1 µM was 9%; the “inhibition of the CDC25B phosphatase activity (in words)” value (shortened to “inhibition”) is reported as “measurable inhibition of the phosphatase activity, only when added at the highest concentration”.
`O=C(O)c1c2ccc(=O)cc-2oc2cc(O)ccc12` [Compound 3]: the cell growth rate result in assay [2] and in assay [3] was “failure” in each case. The Ki worked out at 280 ± 90 nM in assay [4] (setting [7]), 4400 ± 620 nM in assay [5] (setting [8]) and 2400 ± 390 nM in assay [6]. Moreover, the remaining activity at 0.2 µM in assay [1] was determined as 85%. Besides, the remaining activity at 1 µM in assay [1] was 62%. Further, in assay [1], the “inhibition” value is “measurable inhibition of the phosphatase activity, only when added at the highest concentration”.
Consider `O=C(O)CCc1c2ccc(=O)cc-2oc2cc(O)ccc12` [Compound 4], for which, in assay [1], the remaining activity at 0.2 µM turned out to be 90%; the remaining activity at 1 µM is 28%; the “inhibition” value is “measurable inhibition of the phosphatase activity, only when added at the highest concentration”.
On to `O=C(O)C=Cc1c2ccc(=O)cc-2oc2cc(O)ccc12` [Compound 5], for which the cell growth rate result in assay [2] and in assay [3] was “failure” each time. Further, the Ki in assay [4] (setting [7]) came to 380 ± 120 nM; in assay [5] (setting [8]), 390 ± 150 nM; in assay [6] it was 120 ± 50 nM. In assay [1], the remaining activity at 0.2 µM turned out to be 12%. Besides, in assay [1], the remaining activity at 1 µM stood at 2%.
`O=C(O)/C=C/c1c2ccc(=O)c(O)c-2oc2c(O)c(O)ccc12` [Compound 6, (E)-3-(4,5,6-trihydroxy-3-oxo-3H-xanthen-9-yl)acrylic acid]: the cell growth rate entry in assay [3] was “significant reduction of cell growth rate”. Besides, the Ki amounted to 100 ± 30 nM in assay [4] (setting [7]), 1000 ± 410 nM in assay [5] (setting [8]) and 1100 ± 370 nM in assay [6]. Further, in assay [1], the remaining activity at 0.2 µM was 14%. The remaining activity at 1 µM in assay [1] was determined as 2%.
Turning to `O=c1cc2oc3cc(O)c(O)cc3c(-c3ccccc3)c-2cc1O` [Compound 9], the cell growth rate result in assay [2] and in assay [3] was “failure” in each case. Moreover, the Ki in assay [4] (setting [7]) was 800 ± 310 nM; in assay [5] (setting [8]), 1500 ± 480 nM; in assay [6], 440 ± 200 nM. The remaining activity at 0.2 µM in assay [1] is 9%. In assay [1], the remaining activity at 1 µM amounted to 0%.
Regarding `O=C(O)c1ccccc1-c1c2cc(I)c(=O)c(I)c-2oc2c(I)c(O)c(I)cc12` [Compound 15], in assay [1], the remaining activity at 0.2 µM was determined as 79%; the remaining activity at 1 µM came out at 18%; the “inhibition” value is “measurable inhibition of the phosphatase activity, only when added at the highest concentration”.
`O=C(O)c1ccccc1-c1c2cc([N+](=O)[O-])c(=O)c(Br)c-2oc2c(Br)c(O)c([N+](=O)[O-])cc12` [Compound 19]: in assay [1], the remaining activity at 0.2 µM was 86%; the remaining activity at 1 µM amounted to 70%; the “inhibition” value is “measurable inhibition of the phosphatase activity, only when added at the highest concentration”.
With `O=c1ccc2c(-c3ccccc3S(=O)(=O)O)c3ccc(O)c(O)c3oc-2c1O` [Compound 20], in assay [1], the remaining activity at 0.2 µM is 91%; the remaining activity at 1 µM came out at 24%; the “inhibition” value is “measurable inhibition of the phosphatase activity, only when added at the highest concentration”.
For the compound `CN(C)c1ccc(-c2c3cc(O)c(=O)cc-3oc3cc(O)c(O)cc23)cc1` [Compound 22], in assay [1], the remaining activity at 0.2 µM worked out at 80%; the remaining activity at 1 µM was 0%; the “inhibition” value is “measurable inhibition of the phosphatase activity, only when added at the highest concentration”.
Consider `O=C(O)C1[C@H]2C=C[C@H](C2)[C@H]1c1c2ccc(=O)c(O)c-2oc2c(O)c(O)ccc12` (stereo partly drawn) [Compound 24, (1R,3R,4S)-3-(4,5,6-trihydroxy-3-oxo-3H-xanthen-9-yl)bicyclo[2.2.1]hept-5-ene-2-carboxylic acid], for which the cell growth rate result in assay [3] is recorded as “significant reduction of cell growth rate”. Moreover, the Ki in assay [4] was 10 ± 5 nM; in assay [5], 400 ± 110 nM; in assay [6], 300 ± 80 nM. In addition, the remaining activity at 0.2 µM in assay [1] was determined as 22%. In addition, the remaining activity at 1 µM in assay [1] was 3%.
Regarding `O=C(O)C1C(c2c3ccc(=O)c(O)c-3oc3c(O)c(O)ccc23)C2(Cl)C(Cl)=C(Cl)C1(Cl)C2(Cl)Cl` (centres unmarked) [Compound 25], the cell growth rate entry in assay [2] and in assay [3] was “failure” each time. In addition, the Ki in assay [4] (setting [7]) is 400 ± 150 nM; in assay [5] (setting [8]), 960 ± 380 nM; in assay [6], 1100 ± 400 nM. Besides, the remaining activity at 0.2 µM in assay [1] turned out to be 24%. In addition, in assay [1], the remaining activity at 1 µM is 1%.

Values taken from paper PMC4741889, “Ligand-based chemoinformatic discovery of a novel small molecule inhibitor targeting CDC25 dual specificity phosphatases and displaying in vitro efficacy against melanoma cells” (Oncotarget, 2015).
